Like-named read-outs stand apart in the source and are kept apart here. Marks after values point to notes of the source that are not given here.
What was measured:
[1] = Phase solubility study with γCD; assay type: physicochemical; conditions: 0.1 M phosphate buffer (pH 2.1), 25 °C, mean ± SD (n = 3)
Procedure: (§1) Phase solubility studies were conducted according to the method described by Higuchi and Connors. Briefly, 1 mL of CD solutions (0 to 14 mM, pH 2.1) were added to excess amounts of PB or related compounds placed in screw cap tubes. The resulting samples were shaken for 72 h at 25 °C and 120 rpm (Multi Shaker MMS-3020 in a temperature control chamber FMC-1000; Eyela Co., Ltd., Tokyo, Japan). The resulting suspensions were filtered through 0.2 µm membrane filters (Minisart RC 4, Sartorius Stedim Lab Ltd., Stonehouse, UK) and diluted appropriately. The solubility of PB or related compounds was determined by HPLC, and the data were used to construct phase solubility diagrams. The guest/host ratios for the systems showing BS-type solubility diagrams were estimated as the quotient of the amount of undissolved guest at the start of the plateau region and the CD concentration range corresponding to the plateau region.
(§2) HPLC measurements were performed according to a previous report using a JASCO HPLC system (Jasco Corp., Tokyo, Japan). A YMC-PACK ODS AM 303 column (5 µm, 250 mm × 4.6 mm, YMC Co., Kyoto, Japan) was used as the stationary phase and was maintained at 40 °C. […] For PC and PH, the elution program used was 0–7 min (50–100% B), 7–10 min (100% B), and 10–15 min (100–50% B) at a constant flow rate of 1 mL/min.

[2] = Phase solubility study with βCD; assay type: physicochemical; conditions: 0.1 M phosphate buffer (pH 2.1), 25 °C, mean ± SD (n = 3)
Procedure: as §1, §2

[3] = Phase solubility study with αCD; assay type: physicochemical; conditions: 0.1 M phosphate buffer (pH 2.1), 25 °C; for Apparent stability constant K αCD / Guest/Host Ratio αCD: phase solubility, mean ± SD (n = 3)
Procedure: as §1, §2

[4] = 1H NMR continuous variation plot with αCD; assay type: binding; conditions: proton Y monitored, 0.1 M sodium borate/D2O, 25 °C, total concentration 1.0 × 10^−2 M
Procedure: ^1H NMR spectra were obtained using a JEOL-A500 spectrometer (Tokyo, Japan) operating at 500 MHz in 5 mm sample tubes at 25 °C using D2O/0.1 M sodium borate (pH meter reading of 9.4) as solvent. The resonance at 4.68 to 4.75 ppm, due to residual solvents (H2O and HOD), was used as an internal reference. Chemical shifts are given as parts per million (ppm), with an accuracy of ±0.001. No external reference was used to avoid possible interactions with the CDs. The ^1H NMR signals of the guests (PB and related compounds) were assigned by 2D ^1H-^1H correlation spectroscopy (COSY), whereas those of the CDs were assigned according to a previous report. The complex stoichiometries were determined by the continuous variation method, where the total concentrations of CD and guest were kept constant at 1.0 × 10^−2 M. In addition, the changes in the chemical shift of CDs and the guest protons in their equimolar systems (5.0 × 10^−3 M) were monitored. […] The stability constant values of the complexes formed by PH were determined from the curves. Two-dimensional ROESY NMR experiments were performed for the CD-PH systems in the phase-sensitive mode using the same spectrometer. Each spectrum consisted of a matrix of F2 by F1 covering a sweep width of 5000 Hz with 36 scans. The spin-lock mixing time was 800 ms, with a relaxation delay of 4 s, and a 90° pulse width of 11.8 µs. The concentration of guest and host were 2.5 × 10^−2 M/1.0 × 10^−1 M (PH/αCD), 1.5 × 10^−2 M/2.5 × 10^−2 M (PH/βCD), and 2.5 × 10^−2 M/2.5 × 10^−2 M (PH/γCD). The stability constants (K1:1) of the PH–CD complexes were estimated by analyzing the first-order dependences of the chemical shift change of PH protons on CD concentration using Equation (2):(2) δobs=δ0+δ1K1:1CDf/1+K1:1CDf where δ0 and δobs are chemical shifts of PH protons without or with CD, respectively, and δ1 is the chemical shift of PH protons in the 1:1 complex.

[5] = parameters: method as in PMID 36548517; conditions: 0.1 M phosphate buffer (pH 2.1), 25 °C, cited from earlier work
[6] = parameters: method as in PMID 36548517; conditions: phase solubility, 0.1 M phosphate buffer (pH 2.1), 25 °C, mean ± SD (n = 3); cited from earlier work
[7] = parameters: method as in PMID 36548517; conditions: phase solubility, 0.1 M phosphate buffer (pH 2.1), 25 °C, mean ± SD (n = 3); cited from earlier work; remark: listed apart in the source
[8] = parameters: method as in PMID 36548517; conditions: proton Y monitored, 0.1 M sodium borate/D2O, 25 °C, total concentration 1.0 × 10^−2 M; cited from earlier work
[9] = 1H NMR molar ratio titration with αCD (stability constant); assay type: binding
Procedure: (§3) ^1H NMR spectra were obtained using a JEOL-A500 spectrometer (Tokyo, Japan) operating at 500 MHz in 5 mm sample tubes at 25 °C using D2O/0.1 M sodium borate (pH meter reading of 9.4) as solvent. The resonance at 4.68 to 4.75 ppm, due to residual solvents (H2O and HOD), was used as an internal reference. Chemical shifts are given as parts per million (ppm), with an accuracy of ±0.001. No external reference was used to avoid possible interactions with the CDs. The ^1H NMR signals of the guests (PB and related compounds) were assigned by 2D ^1H-^1H correlation spectroscopy (COSY), whereas those of the CDs were assigned according to a previous report. The complex stoichiometries were determined by the continuous variation method, where the total concentrations of CD and guest were kept constant at 1.0 × 10^−2 M. In addition, the changes in the chemical shift of CDs and the guest protons in their equimolar systems (5.0 × 10^−3 M) were monitored. […] The stability constant values of the complexes formed by PH were determined from the curves. […]
(§4) The equation was analyzed by the iteration method since the concentration of free CD ([CD]f) is unknown unless K1:1 had been determined beforehand. […] Therefore, by setting [CD]f = [CD]t as a first approximation, Equation (2) was analyzed by a nonlinear least-squares method, and, in turn, [CD]f values were calculated using the obtained apparent K1:1 value. […]

[10] = 1H NMR molar ratio titration with βCD (stability constant); assay type: binding
Procedure: as §3, §4

[11] = 1H NMR molar ratio titration with γCD (stability constant); assay type: binding
Procedure: as §3, §4

[12] = NMR value (pH 9.4) vs phase solubility value (pH 2.1)

Compound | Apparent stability constant K γCD [1] [M⁻¹] | Guest/Host Ratio γCD [1] | Apparent stability constant K βCD [2] [M⁻¹] | Guest/Host Ratio βCD [2] | Phase solubility diagram type with αCD [3] | Apparent stability constant K αCD [3] [M⁻¹] | Maximum of continuous variation plot, guest/(guest + host) mole fraction, αCD [4] | Guest/Host Ratio αCD [3] | also measured
O=C(O)CCCCc1ccccc1 [PV, 5-phenylvaleric acid] | 223 ± 7 | 2.21 ± 0.03 | 838 ± 52 | 0.99 ± 0.05 | AL-type | 639 ± 20 | 0.35 | – | –
O=C(O)CCCc1ccccc1 [PB, 4-phenylbutyrate] | – | – | – | – | – | – | – | – | Phase solubility diagram type with αCD [5]: AL-type; Apparent stability constant K αCD ([5]; phase solubility, mean ± SD (n = 3)): 481 ± 26 ^a M^−1; Apparent stability constant K γCD [6]: 119 ± 9 ^a M^−1; Guest/Host Ratio γCD [6]: 2.14 ± 0.08 ^b; Apparent stability constant K βCD [7]: 178 ± 23 ^a M^−1; Guest/Host Ratio βCD [7]: 1.02 ± 0.05 ^b; Maximum of continuous variation plot, guest/(guest + host) mole fraction, αCD [8]: 0.5
O=C(O)CCc1ccccc1 [PP, 3-phenylpropionic acid] | 34 ± 1 | – | 74 ± 3 | – | AL-type | 226 ± 5 | – | – | –

More lines, main results first:

Apparent stability constant K γCD [1] [M⁻¹] | Guest/Host Ratio γCD [1] | Apparent stability constant K βCD [2] [M⁻¹] | Guest/Host Ratio βCD [2] | Phase solubility diagram type with αCD [3] | Apparent stability constant K αCD [3] [M⁻¹] | Maximum of continuous variation plot, guest/(guest + host) mole fraction, αCD [4] | Guest/Host Ratio αCD [3] | Compound | also measured
499 ± 59 | 2.30 ± 0.03 | 2283 ± 134 | 1.08 ± 0.01 | BS-type | 1185 ± 35 | 0.35 | 0.55 ± 0.03 | O=C(O)CCCCCc1ccccc1 [PC, 6-phenylcaproic acid] | –
1213 ± 18 | 2.20 ± 0.01 | 7458 ± 52 | 1.02 ± 0.01 | BS-type | 2500 ± 50 | 0.35 | 0.44 ± 0.01 | O=C(O)CCCCCCc1ccccc1 [PH, 7-phenylheptanoic acid] | Reduction of stability constant of αCD complex compared to value at pH 2.1 [9, 12]: 20 fold; Stability constant K1:1 of αCD complex from 1H NMR chemical shift change ([9]; determined from protons A and Y, 0.1 M sodium borate/D2O (pH 9.4), 25 °C): 123 ± 2 M⁻¹; Reduction of stability constant of βCD complex compared to value at pH 2.1 [10, 12]: 3 fold; Stability constant K1:1 of βCD complex from 1H NMR chemical shift change ([10]; determined from protons A and X, 0.1 M sodium borate/D2O (pH 9.4), 25 °C): 2513 ± 469 M⁻¹; Reduction of stability constant of γCD complex compared to value at pH 2.1 [11, 12]: 3 fold; Stability constant K1:1 of γCD complex from 1H NMR chemical shift change ([11]; determined from protons C and X, 0.1 M sodium borate/D2O (pH 9.4), 25 °C): 370 ± 6 M⁻¹

— article PMC10606765, “Study of the Structural Chemistry of the Inclusion Complexation of 4-Phenylbutyrate and Related Compounds with Cyclodextrins in Solution: Differences in Inclusion Mode with Cavity Size Dependency” (International Journal of Molecular Sciences, 2023)
